Values joined by “and” are separate entries in the source; they are usually repeats but may differ in a detail not shown here. Equal entries are not always repeated.
Experiments:
[1] = test system: lung tumor xenografts; assay: Experiment H327: growth in lung tumor xenografts after dosing with B-RAF inhibitor; type: in vivo, mice; conditions: for Absolute body weight / Relative body weight / Survival time: individual animal; for Relative tumor volume / Absolute tumor volume: (a*b*b)/2: individual tumor
Source text: FIGS. 10-18 depict growth in lung tumor xenografts after dosing with GDC-0879.
The data are shown below, and in FIGS. 10-14 for Experiment H331 and FIGS. 15-18 for Experiment H327.

[2] = test system: C-RAF in A375 (B-RAFV600E) cells transfected with KRASG12D; assay: C-RAF immunoprecipitation: kinase activity and B-RAF heterodimerization; type: cell-based; set-up: dose or concentration left out as unconfirmed; conditions: A375 transfected with mutant KRASG12D; dosed at 0.1, 1
Procedure: FIGS. 20A, B, C and D depict the importance of the role of active Ras plays in C-RAF activation and phospho-MEK induction by RAF inhibitors. (A) A375 (B-RAFV600E) cells were treated with GDC-0879 or PLX4720 for 1 hour and lysed in hypotonic buffer for membrane fractionation. Both membrane (P100) and cytosolic (S100) fractions were immunoblotted with the indicated antibodies. (B) MeWo cells were transiently transfected with KRASWT or KRASSI7N, treated with GDC-0879 or PLX4720 (at […]) for 1 hour and fractionated into membrane (P100) and cytosolic (S100) fractions. Aliquots of the membrane and cytosolic fractions were immunoblotted with anti-phospho- and anti-total MEK antibodies. (C) RAS-GTP levels were measured from lysates of MeWo (RAS/RAFWT), A375 (B-RAFV600E) and H2122 (KRASMT) cells with a Ras-GTP ELISA protocol using immobilized C-RAF-RBD as bait for capturing RAS-GTP. Relative luminescent units represent RAS detection of an anti-RAS antibody bound to the RBD. RAS-GTP H2122>>Mewo>A375. […] C-RAF was immunoprecipitated from control and inhibitor-treated cells and assayed for protein activity and B-RAF heterodimerization. Total C-RAF levels shown by WB in the immunoprecipitate indicate loading for each lane.

[3] = test system: WT Raf isoforms; assay: Biochemical enzyme assay at physiological [ATP]
Source text: FIG. 1 depicts Biochemical enzyme assay data.

[4] = H327-2, LXFA 1041/9N4, 100 mg/kg/day po Days 0-20, study day 14, listed as G-026887
[5] = H327-2, LXFA 1041/9N4, 100 mg/kg/day po Days 0-20, study day 17, group median n 10
[6] = H327-2, LXFA 1041/9N4, 100 mg/kg/day po Days 0-20, study day 17, group median n 20
[7] = H327-2, LXFA 1041/9N4, 100 mg/kg/day po Days 0-20, study day 17, listed as G-026887
[8] = H327-2, LXFA 1041/9N4, 100 mg/kg/day po Days 0-20, study day 20, group median n 10
[9] = H327-2, LXFA 1041/9N4, 100 mg/kg/day po Days 0-20, study day 20, group median n 20
[10] = H327-2, LXFA 1041/9N4, 100 mg/kg/day po Days 0-20, study day 20, listed as G-026887
[11] = H327-5, LXFA 1041/9N4, 100 mg/kg/day po Day 0, study day 0, group median n 6
[12] = H327-5, LXFA 1041/9N4, 100 mg/kg/day po Day 0, study day 0, listed as G-026887
[13] = H327-6, LXFA 1041/9N4, 100 mg/kg/day po Day 0, study day 0, group median n 3
[14] = H327-6, LXFA 1041/9N4, 100 mg/kg/day po Day 0, study day 0, listed as G-026887

How did the Absolute body weight [1, 4] turn out when `OCCn1cc(-c2ccc3c(c2)CC/C3=N\O)c(-c2ccncc2)n1` [GDC-0879, 2-{4-[(1E)-1-(hydroxyimino)-2,3-dihydro-1H-inden-5-yl]-3-(pyridine-4-yl)-1H-pyrazol-1-yl}ethan-1-ol] was run?
Its Absolute body weight is 25.1 g and 30.7 g and 24.8 g and 24.6 g and 24.4 g and 26.1 g and 31.2 g and 30.4 g and 26.8 g and 22.7 g.

What about the Relative body weight [1, 4] of the same compound?
Its Relative body weight is 98.8% and 107.3% and 101.2% and 100.4% and 101.7% and 104.0% and 104.7% and 96.5% and 107.2% and 96.2%.

What about the Relative tumor volume [1, 4] of the same compound?
Its Relative tumor volume is 964.1% and 811.9% and 593.5% and 515.7% and 743.1% and 697.3% and 1076.6% and 1151.3% and 503.3% and 616.5% and 626.8% and 523.7% and 733.4% and 523.3%.

And the “Absolute body weight, Median” value [1, 5]?
Its value is 25.7 g.

What about the “Relative body weight, Median” value [1, 5] of the same compound?
Its value is 102.7%.

What about the “Absolute tumor volume: (a*b*b)/2, Median” value [1, 6] of the same compound?
Its value is 789.5 mm3.

And the “Relative tumor volume, Median” value [1, 6]?
The value was 900.4%.

And the Absolute body weight [1, 7]?
Its Absolute body weight is 24.8 g and 30.3 g and 25.1 g and 25.0 g and 24.7 g and 26.2 g and 31.9 g and 31.1 g and 26.4 g and 22.7 g.

What about the Relative body weight [1, 7] of the same compound?
The Relative body weight was 97.6% and 105.9% and 102.4% and 102.0% and 102.9% and 104.4% and 107.0% and 98.7% and 105.6% and 96.2%.

And the Relative tumor volume [1, 7]?
Its Relative tumor volume is 1372.2% and 1073.6% and 869.4% and 770.2% and 1242.1% and 1093.2% and 1915.9% and 1727.1% and 932.7% and 931.4% and 937.2% and 831.6% and 856.0% and 746.4%.

What about the “Absolute body weight, Median” value [1, 8] of the same compound?
Its value is 26.9 g.

What about the “Relative body weight, Median” value [1, 8] of the same compound?
The value was 108.0%.

And the “Absolute tumor volume: (a*b*b)/2, Median” value [1, 9]?
Its value is 928.6 mm3.

And the “Relative tumor volume, Median” value [1, 9]?
Its value is 1023.2%.

And the Absolute body weight [1, 10]?
The Absolute body weight was 25.4 g and 31.4 g and 25.8 g and 26.3 g and 26.1 g and 28.3 g and 33.2 g and 32.4 g and 27.4 g and 23.1 g.

What about the Relative body weight [1, 10] of the same compound?
Its Relative body weight is 100.0% and 109.8% and 105.3% and 107.3% and 108.8% and 112.7% and 111.4% and 102.9% and 109.6% and 97.9%.

What about the Relative tumor volume [1, 10] of the same compound?
Its Relative tumor volume is 1795.5% and 1109.8% and 1056.9% and 872.2% and 1346.4% and 1155.4% and 2275.4% and 1830.4% and 1070.4% and 1264.0% and 971.2% and 860.0% and 980.4% and 989.5%.

And the “Absolute tumor volume: (a*b*b)/2” value ([1]; H327-2, LXFA 1041/9N4 Lung, adeno, 100 mg/kg/day po Days 0-20, study day 0, listed as G-026887, 100 mg/kg/day)?
Its value is 47.6 mm3 and 100.9 mm3 and 90.8 mm3 (2×) and 111.6 mm3 and 68.8 mm3 and 57.6 mm3 and 62.5 mm3 and 84.7 mm3 and 50.6 mm3 and 210.8 mm3 and 117.2 mm3 and 139.4 mm3.

And the “Absolute tumor volume: (a*b*b)/2” value ([1]; H327-2, LXFA 1041/9N4 Lung, adeno, 100 mg/kg/day po Days 0-20, study day 3, listed as G-026887, 100 mg/kg/day)?
The value was 92.3 mm3 and 210.8 mm3 and 140.4 mm3 and 209.5 mm3 and 139.3 mm3 and 90.8 mm3 and 68.8 mm3 and 145.4 mm3 and 117.0 mm3 and 98.3 mm3 and 292.8 mm3 and 201.6 mm3 and 249.4 mm3.

And the “Absolute tumor volume: (a*b*b)/2” value ([1]; H327-2, LXFA 1041/9N4 Lung, adeno, 100 mg/kg/day po Days 0-20, study day 7, listed as G-026887, 100 mg/kg/day)?
The value was 215.1 mm3 and 332.8 mm3 and 272.8 mm3 and 291.2 mm3 and 258.8 mm3 and 147.9 mm3 and 212.5 mm3 and 294.4 mm3 and 197.0 mm3 and 126.0 mm3 and 470.6 mm3 and 344.4 mm3 and 392.9 mm3.

What about the “Absolute tumor volume: (a*b*b)/2” value ([1]; H327-2, LXFA 1041/9N4 Lung, adeno, 100 mg/kg/day po Days 0-20, study day 10, listed as G-026887, 100 mg/kg/day) of the same compound?
Its value is 279.3 mm3 and 491.9 mm3 and 461.7 mm3 and 420.1 mm3 and 284.6 mm3 and 237.2 mm3 and 326.4 mm3 and 510.3 mm3 and 274.4 mm3 and 173.2 mm3 and 701.8 mm3 and 451.3 mm3 and 546.2 mm3.

What about the “Absolute tumor volume: (a*b*b)/2” value ([1]; H327-2, LXFA 1041/9N4 Lung, adeno, 100 mg/kg/day po Days 0-20, study day 14, listed as G-026887, 100 mg/kg/day) of the same compound?
The value was 458.8 mm3 and 819.3 mm3 and 538.6 mm3 and 575.5 mm3 and 510.9 mm3 and 401.6 mm3 and 672.9 mm3 and 1044.8 mm3 and 426.3 mm3 and 312.1 mm3 and 1321.4 mm3 and 613.8 mm3 and 1022.5 mm3.

What about the “Absolute tumor volume: (a*b*b)/2” value ([1]; H327-2, LXFA 1041/9N4 Lung, adeno, 100 mg/kg/day po Days 0-20, study day 17, listed as G-026887, 100 mg/kg/day) of the same compound?
Its value is 653.0 mm3 and 1083.4 mm3 and 789.0 mm3 and 859.6 mm3 and 853.9 mm3 and 629.7 mm3 and 1197.5 mm3 and 1567.4 mm3 and 790.0 mm3 and 471.5 mm3 and 1975.9 mm3 and 974.7 mm3 and 1193.5 mm3.

What about the “Absolute tumor volume: (a*b*b)/2” value ([1]; H327-2, LXFA 1041/9N4 Lung, adeno, 100 mg/kg/day po Days 0-20, study day 20, listed as G-026887, 100 mg/kg/day) of the same compound?
The value was 854.4 mm3 and 1120.0 mm3 and 959.2 mm3 and 973.4 mm3 and 925.7 mm3 and 665.5 mm3 and 1422.1 mm3 and 1661.1 mm3 and 906.6 mm3 and 639.9 mm3 and 2047.5 mm3 and 1008.0 mm3 and 1366.9 mm3.

And the Survival time ([1]; H327-5, LXFA 1041/9N4, 100 mg/kg/day po Day 0)?
Its Survival time is >0 days.

And the “Absolute body weight, Median” value [1, 11]?
Its value is 25.6 g.

And the “Absolute tumor volume: (a*b*b)/2, Median” value [1, 11]?
The value was 248.1 mm3.

What about the “Relative body weight, Median” value [1, 11] of the same compound?
Its value is 100.0%.

And the “Relative tumor volume, Median” value [1, 11]?
The value was 100.0%.

And the Relative body weight ([1]; H327-5, LXFA 1041/9N4, 100 mg/kg/day po Day 0, study day 0)?
Its Relative body weight is 100.0%.

And the Absolute body weight [1, 12]?
Its Absolute body weight is 26.3 g and 23.5 g and 24.9 g and 31.1 g and 20.8 g and 27.4 g.

And the “Absolute tumor volume: (a*b*b)/2” value [1, 12]?
Its value is 256.0 mm3 and 219.0 mm3 and 423.2 mm3 and 441.1 mm3 and 166.5 mm3 and 240.1 mm3.

And the Survival time ([1]; H327-6, LXFA 1041/9N4, 100 mg/kg/day po Day 0)?
Its Survival time is >0 days.

What about the “Absolute body weight, Median” value [1, 13] of the same compound?
The value was 27.2 g.

And the “Absolute tumor volume: (a*b*b)/2, Median” value [1, 13]?
The value was 267.7 mm3.

What about the Absolute body weight [1, 14] of the same compound?
The Absolute body weight was 27.9 g and 27.2 g and 25.2 g.

What about the “Absolute tumor volume: (a*b*b)/2” value [1, 14] of the same compound?
Its value is 409.1 mm3 and 250.5 mm3 and 267.7 mm3.

And the “B-RAF:C-RAF heterodimers and C-RAF kinase activation” value [2]?
The value was “induce B-RAF:C-RAF heterodimers and C-RAF kinase activation”.

And the “potency in biochemical enzyme assay” value [3]?
The value was “maintains effective potency”.
